Assays:
[1] = Selectivity ratio of IC50 for human CYP2C9 expressed in HEK293 cells to IC50 for human CYP1A1 expressed in HEK293 cells
Homo sapiens [2] = species on record: Homo sapiens; assay: Selectivity ratio of IC50 for human CYP3A4 bound to yeast microsomal membrane to IC50 for human CYP1B1 bound to yeast microsomal membrane
Homo sapiens [3] = species on record: Homo sapiens; assay: Selectivity ratio of IC50 for human CYP2D6 bound to yeast microsomal membrane to IC50 for human CYP1B1 bound to yeast microsomal membrane
[4] = Selectivity ratio of IC50 for human CYP3A4 expressed in HEK293 cells to IC50 for human CYP1B1 expressed in HEK293 cells
Homo sapiens [5] = species on record: Homo sapiens; assay: Selectivity ratio of IC50 for human CYP2C9 bound to yeast microsomal membrane to IC50 for human CYP1B1 bound to yeast microsomal membrane
Homo sapiens [6] = species on record: Homo sapiens; assay: Selectivity ratio of IC50 for human CYP2D6 bound to yeast microsomal membrane to IC50 for human CYP1A2 bound to yeast microsomal membrane
[7] = Selectivity ratio of IC50 for human CYP2C19 expressed in HEK293 cells to IC50 for human CYP1A2 expressed in HEK293 cells
Cytochrome P450 1A1 [8] = biological target: T1, Cytochrome P450 1A1 (Homo sapiens, UniProt P04798); assay: Inhibition of human CYP1A1 transfected in HEK293 cells assessed as protection from CYP1A1 mediated B[a]P toxicity at 8 times IC50 by MTT assay; assay type: cell-based
T1 sequence (P04798 whole entry): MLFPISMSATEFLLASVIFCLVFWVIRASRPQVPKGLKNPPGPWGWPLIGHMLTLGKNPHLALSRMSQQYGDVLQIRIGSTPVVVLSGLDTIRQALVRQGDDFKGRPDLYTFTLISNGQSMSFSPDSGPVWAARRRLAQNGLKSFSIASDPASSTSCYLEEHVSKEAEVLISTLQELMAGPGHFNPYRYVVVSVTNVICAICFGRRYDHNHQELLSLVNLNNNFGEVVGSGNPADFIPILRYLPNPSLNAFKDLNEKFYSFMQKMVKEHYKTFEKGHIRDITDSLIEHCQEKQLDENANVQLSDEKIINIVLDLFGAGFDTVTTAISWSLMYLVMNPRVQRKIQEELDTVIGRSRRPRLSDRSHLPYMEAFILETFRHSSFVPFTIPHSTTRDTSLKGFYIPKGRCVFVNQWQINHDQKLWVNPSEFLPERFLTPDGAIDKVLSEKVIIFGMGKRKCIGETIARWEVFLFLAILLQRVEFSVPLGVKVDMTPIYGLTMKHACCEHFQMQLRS

Homo sapiens [9] = species on record: Homo sapiens; assay: Selectivity ratio of IC50 for human CYP3A4 bound to yeast microsomal membrane to IC50 for human CYP1A2 bound to yeast microsomal membrane
[10] = Selectivity ratio of IC50 for human CYP2C19 expressed in HEK293 cells to IC50 for human CYP1B1 expressed in HEK293 cells
[11] = Selectivity ratio of IC50 for human CYP3A4 expressed in HEK293 cells to IC50 for human CYP1A2 expressed in HEK293 cells
[12] = Selectivity ratio of IC50 for human CYP2D6 expressed in HEK293 cells to IC50 for human CYP1A1 expressed in HEK293 cells
Cytochrome P450 1B1 = biological target: T2, Cytochrome P450 1B1 (Homo sapiens, UniProt Q16678); assay: Inhibition of human CYP1B1 transfected in HEK293 cells assessed as reduction in cisplatin EC50 at 20 uM by MTT assay; assay type: cell-based; settings: hek293, 20 µM
T2 sequence (Q16678 whole entry): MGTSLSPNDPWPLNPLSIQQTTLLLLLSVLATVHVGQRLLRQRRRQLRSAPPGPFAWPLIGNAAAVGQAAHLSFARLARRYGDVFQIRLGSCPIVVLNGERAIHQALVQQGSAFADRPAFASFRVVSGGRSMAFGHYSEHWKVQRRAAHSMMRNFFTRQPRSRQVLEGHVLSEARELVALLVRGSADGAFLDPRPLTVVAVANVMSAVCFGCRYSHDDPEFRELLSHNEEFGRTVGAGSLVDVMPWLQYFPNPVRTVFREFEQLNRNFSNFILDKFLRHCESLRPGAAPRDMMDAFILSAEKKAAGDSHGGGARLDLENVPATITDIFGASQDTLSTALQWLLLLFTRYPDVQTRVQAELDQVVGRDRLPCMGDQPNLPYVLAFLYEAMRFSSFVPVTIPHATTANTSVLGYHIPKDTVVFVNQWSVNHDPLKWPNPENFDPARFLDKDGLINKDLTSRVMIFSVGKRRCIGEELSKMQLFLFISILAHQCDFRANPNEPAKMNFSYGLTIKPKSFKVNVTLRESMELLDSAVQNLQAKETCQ

Cytochrome P450 1A1 [13] = biological target: T1, Cytochrome P450 1A1; assay: Inhibition of human CYP1A1 transfected in HEK293 cells assessed as protection against CYP1A1 mediated B[a]P toxicity at 20 uM by MTT assay; assay type: cell-based; settings: hek293, 20 µM

Structure (SMILES) | Ratio IC50 [1] | Ratio IC50 (Homo sapiens [2]) | Ratio IC50 (Homo sapiens [3]) | Ratio IC50 [4] | Ratio IC50 (Homo sapiens [5]) | Ratio IC50 (Homo sapiens [6]) | Ratio IC50 [7] | inhibition (INH) (Cytochrome P450 1A1 [8]) | Ratio IC50 (Homo sapiens [9]) | Ratio IC50 [10] | Ratio IC50 [11] | Ratio IC50 [12] | inhibition (INH) (Cytochrome P450 1B1) | inhibition (INH) (Cytochrome P450 1A1 [13])
COc1ccccc1/C=C/C(=O)c1ccc[nH]1 | >20 | > 20 | > 20 | >20 | > 20 | > 20 | >20 | Active | > 20 | >20 | >20 | >20 | – | –
O=C(/C=C/c1ccc(OC(F)(F)F)cc1)c1ccc[nH]1 | – | – | – | – | – | – | – | – | – | – | – | – | Not Active | Not Active
O=C(/C=C/c1ccccc1Cl)c1ccc[nH]1 | >20 | > 20 | > 20 | >20 | > 20 | > 20 | >20 | – | > 20 | >20 | >20 | >20 | – | Not Active

— ChEMBL document CHEMBL4052762, “Synthesis and biological evaluation of pyrrole-based chalcones as CYP1 enzyme inhibitors, for possible prevention of cancer and overcoming cisplatin resistance” (Bioorg Med Chem Lett, 2017)
